{
  "source": "patent US6395896B2",
  "about": "“Pyridazine derivatives, manufacturing method and related composition” (Shiseido Co., Ltd., priority 1999, dated 2002)",
  "assay": "Colorant stabilization effect (photostabilizer, sunlight exposure)",
  "design": "key to Sunlight exposure (80 MJ) Appearance: A: No change; B: No almost change; C: Yes change; key to Sunlight exposure (80 MJ) ΔE: ΔE color difference (Lab) vs. color before sunlight exposure",
  "protocol": "First of all, the photostabilization effect and appearance change of a composition in each pigment were studied by the following evaluation formulation.\nEach test sample was prepared. Observation of appearance change (visual evaluation) and measurement of color difference (ΔE) were carried out in samples exposed to sunlight exposure (around 80 MJ).\nColor difference was measured by Lab coordinate system with spectrophotometer. Color difference was calculated on the basis of the color before sunlight exposure. Namely, from measured value (L1,a1,b1) before sunlight exposure, color difference (ΔE) was calculated by following formula.",
  "key": {"[1]": {"conditions": "Blue No. 1 0.00001 wt %, photostabilizer 0.05 wt %"}, "[2]": {"conditions": "Blue No. 1 0.00001 wt %, photostabilizer 0.1 wt %"}, "[3]": {"conditions": "Blue No. 1 0.00001 wt %, photostabilizer 0.3 wt %"}, "[4]": {"conditions": "Blue No. 1 0.0001 wt %, photostabilizer 0.03 wt %"}, "[5]": {"conditions": "Blue No. 1 0.0001 wt %, photostabilizer 0.05 wt %"}, "[6]": {"conditions": "Blue No. 1 0.0001 wt %, photostabilizer 0.1 wt %"}, "[7]": {"conditions": "Green No. 3 0.00001 wt %, photostabilizer 0.03 wt %"}, "[8]": {"conditions": "Green No. 3 0.00001 wt %, photostabilizer 0.1 wt %"}, "[9]": {"conditions": "Green No. 3 0.00001 wt %, photostabilizer 0.3 wt %"}, "[10]": {"conditions": "Green No. 3 0.0001 wt %, photostabilizer 0.02 wt %"}, "[11]": {"conditions": "Green No. 3 0.0001 wt %, photostabilizer 0.05 wt %"}, "[12]": {"conditions": "Green No. 3 0.0001 wt %, photostabilizer 0.1 wt %"}, "[13]": {"conditions": "Red No. 106 0.00001 wt % + Yellow No. 5 0.0001 wt %, photostabilizer 0.03 wt %"}, "[14]": {"conditions": "Red No. 106 0.00001 wt % + Yellow No. 5 0.0001 wt %, photostabilizer 0.05 wt %"}, "[15]": {"conditions": "Red No. 106 0.00001 wt % + Yellow No. 5 0.0001 wt %, photostabilizer 0.3 wt %"}, "[16]": {"conditions": "Red No. 106 0.00001 wt % + Yellow No. 203 0.0001 wt %, photostabilizer 0.05 wt %"}, "[17]": {"conditions": "Red No. 106 0.00001 wt % + Yellow No. 203 0.0001 wt %, photostabilizer 0.1 wt %"}, "[18]": {"conditions": "Red No. 106 0.00001 wt % + Yellow No. 203 0.0001 wt %, photostabilizer 0.3 wt %"}, "[19]": {"conditions": "Red No. 106 0.00001 wt %, photostabilizer 0.05 wt %"}, "[20]": {"conditions": "Red No. 106 0.00001 wt %, photostabilizer 0.1 wt %"}, "[21]": {"conditions": "Red No. 106 0.00001 wt %, photostabilizer 0.3 wt %"}, "[22]": {"conditions": "Red No. 106 0.0001 wt %, photostabilizer 0.03 wt %"}, "[23]": {"conditions": "Red No. 106 0.0001 wt %, photostabilizer 0.05 wt %"}, "[24]": {"conditions": "Red No. 106 0.0001 wt %, photostabilizer 0.1 wt %"}, "[25]": {"conditions": "Red No. 213 0.00001 wt % + Blue No. 1 0.00001 wt %, photostabilizer 0.03 wt %"}, "[26]": {"conditions": "Red No. 213 0.00001 wt % + Blue No. 1 0.00001 wt %, photostabilizer 0.05 wt %"}, "[27]": {"conditions": "Red No. 213 0.00001 wt % + Blue No. 1 0.00001 wt %, photostabilizer 0.1 wt %"}, "[28]": {"conditions": "Red No. 213 0.00001 wt %, photostabilizer 0.03 wt %"}, "[29]": {"conditions": "Red No. 213 0.00001 wt %, photostabilizer 0.1 wt %"}, "[30]": {"conditions": "Red No. 213 0.00001 wt %, photostabilizer 0.3 wt %"}, "[31]": {"conditions": "Red No. 213 0.0001 wt %, photostabilizer 0.03 wt %"}, "[32]": {"conditions": "Red No. 213 0.0001 wt %, photostabilizer 0.05 wt %"}, "[33]": {"conditions": "Red No. 213 0.0001 wt %, photostabilizer 0.1 wt %"}, "[34]": {"conditions": "Red No. 227 0.00001 wt %, photostabilizer 0.05 wt %"}, "[35]": {"conditions": "Red No. 227 0.00001 wt %, photostabilizer 0.1 wt %"}, "[36]": {"conditions": "Red No. 227 0.00001 wt %, photostabilizer 0.3 wt %"}},
  "data": [
    {"smiles": "Oc1nncc(N2CCOCC2)c1N1CCOCC1", "note": "[4,5-Dimorpholino-3-hydroxypyridazine]", "values": [
      {"measurement": "Sunlight exposure (80 MJ) Appearance", "setting": "[1]", "result": "A"},
      {"measurement": "Sunlight exposure (80 MJ) ΔE", "setting": "[1]", "result": 1.00},
      {"measurement": "Sunlight exposure (80 MJ) Appearance", "setting": "[2]", "result": "A"},
      {"measurement": "Sunlight exposure (80 MJ) ΔE", "setting": "[2]", "result": 0.62},
      {"measurement": "Sunlight exposure (80 MJ) Appearance", "setting": "[3]", "result": "A"},
      {"measurement": "Sunlight exposure (80 MJ) ΔE", "setting": "[3]", "result": 0.25},
      {"measurement": "Sunlight exposure (80 MJ) Appearance", "setting": "[4]", "result": "A"},
      {"measurement": "Sunlight exposure (80 MJ) ΔE", "setting": "[4]", "result": 1.25},
      {"measurement": "Sunlight exposure (80 MJ) Appearance", "setting": "[5]", "result": "A"},
      {"measurement": "Sunlight exposure (80 MJ) ΔE", "setting": "[5]", "result": 1.11},
      {"measurement": "Sunlight exposure (80 MJ) Appearance", "setting": "[6]", "result": "A"},
      {"measurement": "Sunlight exposure (80 MJ) ΔE", "setting": "[6]", "result": 0.70},
      {"measurement": "Sunlight exposure (80 MJ) Appearance", "setting": "[7]", "result": "A"},
      {"measurement": "Sunlight exposure (80 MJ) ΔE", "setting": "[7]", "result": 0.56},
      {"measurement": "Sunlight exposure (80 MJ) Appearance", "setting": "[8]", "result": "A"},
      {"measurement": "Sunlight exposure (80 MJ) ΔE", "setting": "[8]", "result": 0.08},
      {"measurement": "Sunlight exposure (80 MJ) Appearance", "setting": "[9]", "result": "A"},
      {"measurement": "Sunlight exposure (80 MJ) ΔE", "setting": "[9]", "result": 0.02},
      {"measurement": "Sunlight exposure (80 MJ) Appearance", "setting": "[10]", "result": "A"},
      {"measurement": "Sunlight exposure (80 MJ) ΔE", "setting": "[10]", "result": 0.75},
      {"measurement": "Sunlight exposure (80 MJ) Appearance", "setting": "[11]", "result": "A"},
      {"measurement": "Sunlight exposure (80 MJ) ΔE", "setting": "[11]", "result": 0.31},
      {"measurement": "Sunlight exposure (80 MJ) Appearance", "setting": "[12]", "result": "A"},
      {"measurement": "Sunlight exposure (80 MJ) ΔE", "setting": "[12]", "result": 0.06},
      {"measurement": "Sunlight exposure (80 MJ) Appearance", "setting": "[13]", "result": "A"},
      {"measurement": "Sunlight exposure (80 MJ) ΔE", "setting": "[13]", "result": 0.97},
      {"measurement": "Sunlight exposure (80 MJ) Appearance", "setting": "[14]", "result": "A"},
      {"measurement": "Sunlight exposure (80 MJ) ΔE", "setting": "[14]", "result": 0.55},
      {"measurement": "Sunlight exposure (80 MJ) Appearance", "setting": "[15]", "result": "A"},
      {"measurement": "Sunlight exposure (80 MJ) ΔE", "setting": "[15]", "result": 0.12},
      {"measurement": "Sunlight exposure (80 MJ) Appearance", "setting": "[16]", "result": "A"},
      {"measurement": "Sunlight exposure (80 MJ) ΔE", "setting": "[16]", "result": 0.77},
      {"measurement": "Sunlight exposure (80 MJ) Appearance", "setting": "[17]", "result": "A"},
      {"measurement": "Sunlight exposure (80 MJ) ΔE", "setting": "[17]", "result": 0.25},
      {"measurement": "Sunlight exposure (80 MJ) Appearance", "setting": "[18]", "result": "A"},
      {"measurement": "Sunlight exposure (80 MJ) ΔE", "setting": "[18]", "result": 0.11},
      {"measurement": "Sunlight exposure (80 MJ) Appearance", "setting": "[19]", "result": "A"},
      {"measurement": "Sunlight exposure (80 MJ) ΔE", "setting": "[19]", "result": 1.01},
      {"measurement": "Sunlight exposure (80 MJ) Appearance", "setting": "[20]", "result": "A"},
      {"measurement": "Sunlight exposure (80 MJ) ΔE", "setting": "[20]", "result": 0.55},
      {"measurement": "Sunlight exposure (80 MJ) Appearance", "setting": "[21]", "result": "A"},
      {"measurement": "Sunlight exposure (80 MJ) ΔE", "setting": "[21]", "result": 0.12},
      {"measurement": "Sunlight exposure (80 MJ) Appearance", "setting": "[22]", "result": "A"},
      {"measurement": "Sunlight exposure (80 MJ) ΔE", "setting": "[22]", "result": 0.95},
      {"measurement": "Sunlight exposure (80 MJ) Appearance", "setting": "[23]", "result": "A"},
      {"measurement": "Sunlight exposure (80 MJ) ΔE", "setting": "[23]", "result": 0.82},
      {"measurement": "Sunlight exposure (80 MJ) Appearance", "setting": "[24]", "result": "A"},
      {"measurement": "Sunlight exposure (80 MJ) ΔE", "setting": "[24]", "result": 0.43},
      {"measurement": "Sunlight exposure (80 MJ) Appearance", "setting": "[25]", "result": "A"},
      {"measurement": "Sunlight exposure (80 MJ) ΔE", "setting": "[25]", "result": 1.21},
      {"measurement": "Sunlight exposure (80 MJ) Appearance", "setting": "[26]", "result": "A"},
      {"measurement": "Sunlight exposure (80 MJ) ΔE", "setting": "[26]", "result": 0.97},
      {"measurement": "Sunlight exposure (80 MJ) Appearance", "setting": "[27]", "result": "A"},
      {"measurement": "Sunlight exposure (80 MJ) ΔE", "setting": "[27]", "result": 0.73},
      {"measurement": "Sunlight exposure (80 MJ) Appearance", "setting": "[28]", "result": "B"},
      {"measurement": "Sunlight exposure (80 MJ) ΔE", "setting": "[28]", "result": 1.24},
      {"measurement": "Sunlight exposure (80 MJ) Appearance", "setting": "[29]", "result": "A"},
      {"measurement": "Sunlight exposure (80 MJ) ΔE", "setting": "[29]", "result": 0.45},
      {"measurement": "Sunlight exposure (80 MJ) Appearance", "setting": "[30]", "result": "A"},
      {"measurement": "Sunlight exposure (80 MJ) ΔE", "setting": "[30]", "result": 0.12},
      {"measurement": "Sunlight exposure (80 MJ) Appearance", "setting": "[31]", "result": "B"},
      {"measurement": "Sunlight exposure (80 MJ) ΔE", "setting": "[31]", "result": 1.11},
      {"measurement": "Sunlight exposure (80 MJ) Appearance", "setting": "[32]", "result": "A"},
      {"measurement": "Sunlight exposure (80 MJ) ΔE", "setting": "[32]", "result": 0.78},
      {"measurement": "Sunlight exposure (80 MJ) Appearance", "setting": "[33]", "result": "A"},
      {"measurement": "Sunlight exposure (80 MJ) ΔE", "setting": "[33]", "result": 0.32},
      {"measurement": "Sunlight exposure (80 MJ) Appearance", "setting": "[34]", "result": "A"},
      {"measurement": "Sunlight exposure (80 MJ) ΔE", "setting": "[34]", "result": 0.69},
      {"measurement": "Sunlight exposure (80 MJ) Appearance", "setting": "[35]", "result": "A"},
      {"measurement": "Sunlight exposure (80 MJ) ΔE", "setting": "[35]", "result": 0.32},
      {"measurement": "Sunlight exposure (80 MJ) Appearance", "setting": "[36]", "result": "A"},
      {"measurement": "Sunlight exposure (80 MJ) ΔE", "setting": "[36]", "result": 0.11},
      {"measurement": "Sunlight exposure (80 MJ) Appearance", "setting": "Red No. 227 0.0001 wt % + Yellow No. 5 0.0001 wt %, photostabilizer 0.03 wt %", "result": "A"}
    ]}
  ]
}
